# From US6673780B2, “Sulfoxide and bis-sulfoxide compounds and compositions for cholesterol management and related uses” (Esperion Therapeutics, Inc., priority 2000, dated 2004)
# Experiments:
# obese female Zucker rats = assay: Two weeks of daily oral gavage treatment in chow-fed obese female Zucker rats; format: in vivo, rat; settings: 100 mg/kg daily oral gavage; for ratio of HDL/non-HDL cholesterol: pretreatment 2.70; for increase of total serum cholesterol: vs pretreatment
# Protocol: Dosing vehicle of Compound A (100 mg/kg) was administered to 9-10 week old female obese Zucker rats (i.e. the fa/fa or leptin receptor deficient rat) daily for 14 days in the morning by oral gavage in 1.5 percent carboxymethylcellulose/0.2 percent […]. Tail vein blood for glucose determinations (without anesthesia) and orbital blood samples for serum (with anestehesia for all other determinations) were obtained following a 6 hour fast prior to the initial dose and after one and two weeks of dosing.
# Blood serum were assayed for insulin, non-esterified fatty acids, […], total cholesterol, and triglycerides (FIG. 2). Glucose was determined in whole blood (Table 1). Blood serum was also used to produce lipoprotein cholesterol profiles (FIG. 2), and used to determine VLDL plus LDL cholesterol combined (also referred to as apoB containing lipoprotein cholesterol or non-HDL cholesterol), HDL cholesterol, and the ratio of HDL cholesterol to that of VLDL plus LDL cholesterol (FIG. 2). In addition, the effect of Compound A on weight gain after 14 days and the liver to body weight ratio at sacrifice are shown in FIG. 2.
# rat hepatocyte cells = assay: 14C-acetate incorporation into saponified and non-saponified lipids in hepatocytes; format: cell-based; settings: 30 μM; 14C-acetate labeling 4 hr; relative to vehicle control
# Protocol: Washout buffer containing; 149 mM sodium chloride, 9.2 mM sodium N-2-hyroxyethylpiperazine-N′-2-ethanesulfonic acid, 1.7 mM fructose, 0.5 mM EGTA, 10 U/mL heparin at pH 7.5 and digestion buffer containing; 6.7 mM potassium chloride, 143 mM sodium chloride, 9.2 mM sodium N-2-hyroxyethylpiperazine-N′-2-ethanesulfonic acid, 5 mM calcium chloride-dihydrate, 1.7 mM fructose, 0.2% bovine serum albumin, 100 U/mL collagenase Type I, 93 U/mL Hyaluronidase, 160 BAEE/mL trypsin inhibitor at pH 7.5 were prepared. Solutions were oxygenate prior to perfusion. Wash buffer containing Dulbecco's Modified Eagle Medium (DMEM) containing 4.5 gm/L D-glucose, 2 mM GlutMax-1, 0.2% BSA, 5% fetal bovine serum (FBS), […], 1.2 μM hydrocortisone and DMEM+HS solution containing DMEM, 2 mM GlutMax-1, 20 nM delta-antinolevulinic acid, 17.4mM MEM non-essential amino acids, 20% FBS, 12 nM insulin and 1.2 μM hydrocortisone was prepared. DMEM solution containing DMEM, 2 mM GlutMax-1, 20 nM delta-aminolevulinic acid and 17.4 mM MEM non-essential amino acids were prepared. Male Sprague-Dawley rats weighing 125-250 gms were maintained on a standard rodent chow diet and freely given water. On the evening prior to cell isolation, selected healthy animals were fed restricted. […] The cell concentration was determined in several fields on the hemocytometer. […]
smiles,measurement,setting,value
"CC(C)(CO)CCCC[S+]([O-])CCCCC(C)(C)CO [Compound A, 6-(5,5-Dimethyl-6-hydroxy-hexane-1-sulfinyl)-2,2-dimethyl-hexan-1-ol]","blood glucose levels, pretreatment versus posttreatment","obese female Zucker rats; after one and two weeks, 6 hour fast",similar
same,increase in HDL cholesterol,obese female Zucker rats; after one week of treatment,2.2 fold
same,increase of non-HDL cholesterol (VLDL plus LDL cholesterol),obese female Zucker rats; after one week of treatment,38%
same,reduction of serum triglycerides,obese female Zucker rats; after one week of treatment,48%
same,ratio of HDL/non-HDL cholesterol,obese female Zucker rats; after one week of treatment,3.84
same,increase of total serum cholesterol,obese female Zucker rats; after one week of treatment,98%
same,increase in HDL cholesterol,obese female Zucker rats; after two weeks of treatment,3.1 fold
same,increase of non-HDL cholesterol (VLDL plus LDL cholesterol),obese female Zucker rats; after two weeks of treatment,62%
same,reduction of serum triglycerides,obese female Zucker rats; after two weeks of treatment,42%
same,ratio of HDL/non-HDL cholesterol,obese female Zucker rats; after two weeks of treatment,4.97
same,increase of total serum cholesterol,obese female Zucker rats; after two weeks of treatment,74%
same,serum β-hydroxy butyrate,"obese female Zucker rats; after two weeks, elevated from 2.35 pretreatment",3.94 mg/dL
same,serum non-esterified fatty acids,"obese female Zucker rats; after two weeks, reduced from 2.28 pretreatment",0.74 mmol/L
same,reduction of rate of non-saponifiable lipid synthesis,rat hepatocyte cells,54%
same,reduction of rate of saponifiable lipid synthesis,rat hepatocyte cells,25%
